Where a chain is given by its changes, count along the chain named.

Common to all, as to assay: inside-out patch clamp, HEK293
Holding throughout (format): biochemical

The target in test [1] is T1, Kir4.1 (Rattus norvegicus, UniProt P49655, T128A).
T1 sequence (P49655 1-379 T128A): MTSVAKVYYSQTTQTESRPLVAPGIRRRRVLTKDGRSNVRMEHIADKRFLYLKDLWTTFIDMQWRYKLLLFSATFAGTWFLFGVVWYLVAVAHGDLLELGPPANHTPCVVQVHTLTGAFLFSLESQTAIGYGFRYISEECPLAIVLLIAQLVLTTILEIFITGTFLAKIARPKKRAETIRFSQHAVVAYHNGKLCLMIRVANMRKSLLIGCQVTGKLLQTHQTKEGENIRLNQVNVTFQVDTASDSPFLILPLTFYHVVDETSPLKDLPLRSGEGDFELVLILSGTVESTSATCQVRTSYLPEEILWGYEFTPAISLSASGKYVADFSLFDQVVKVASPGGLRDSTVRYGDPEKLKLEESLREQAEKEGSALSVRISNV
To be noted: read-out: % inhibition at 10 μM.

Test [2] addresses T2, Kir4.1 (Rattus norvegicus, UniProt P49655, T127A).
T2 sequence (P49655 1-379 T127A): T1 sequence (P49655 1-379 T128A) with T127A, A128T
To be noted: read-out: % inhibition at 10 μM.

The target of test [3] is T3, Kir4.1 (Rattus norvegicus, UniProt P49655, E158N).
T3 sequence (P49655 1-379 E158N): T1 sequence (P49655 1-379 T128A) with A128T, E158N
To be noted: read-out: % inhibition at 10 μM.

Test [4] deals with T4, Kir4.1 (Rattus norvegicus, UniProt P49655).
T4 sequence (P49655 1-379): T1 sequence (P49655 1-379 T128A) with A128T

Test [5] concerns the target T4, Kir4.1. The settings on record: read-out: % inhibition at 10 μM.

`CCN(CC)CCCC(C)Nc1c2ccc(Cl)cc2nc2ccc(OC)cc12` (centres unmarked) [quinacrine]: the inhibition at 10 µM was 66.1 ± 1.1% in test [1], 89.7 ± 1.1% in test [2], 79.8 ± 2.2% in test [3] and 88.3 ± 1.5% in test [5]. Moreover, half-maximal inhibition in test [4] (IC50) was put at 1800 ± 300 nM.

As a reminder, the inhibition is the drop in the measured response relative to a control, in per cent. One may read the IC50 as the concentration needed to halve the response being measured. A high value points to weaker potency.

(Values after article PMC5502112 (Brain research, 2017).)
